Results as given in article PMC10458470 (Molecules, 2023).
Like-named read-outs stand apart in the source and are kept apart here.

What was measured:
Test in all cases: UV-Vis absorption titration (Kb) and fluorescence quenching (KSV […] ^-1)
Assay type in all cases: binding
[1] = target: T1, human serum albumin (HSA) (Homo sapiens, UniProt P02768); conditions: read-out: UV-Vis absorption titration (Kb) and fluorescence quenching (KSV 4 × 10^6 M^-1) (converted)
T1 construct: gene ALB

[2] = target: T1, human serum albumin (HSA); conditions: read-out: UV-Vis absorption titration (Kb) and fluorescence quenching (KSV 5.6 × 10^6 M^-1) (converted)
[3] = target: T1, human serum albumin (HSA); conditions: read-out: UV-Vis absorption titration (Kb) and fluorescence quenching (KSV 4.6 × 10^6 M^-1) (converted)

T1 sequence (P02768 25-609): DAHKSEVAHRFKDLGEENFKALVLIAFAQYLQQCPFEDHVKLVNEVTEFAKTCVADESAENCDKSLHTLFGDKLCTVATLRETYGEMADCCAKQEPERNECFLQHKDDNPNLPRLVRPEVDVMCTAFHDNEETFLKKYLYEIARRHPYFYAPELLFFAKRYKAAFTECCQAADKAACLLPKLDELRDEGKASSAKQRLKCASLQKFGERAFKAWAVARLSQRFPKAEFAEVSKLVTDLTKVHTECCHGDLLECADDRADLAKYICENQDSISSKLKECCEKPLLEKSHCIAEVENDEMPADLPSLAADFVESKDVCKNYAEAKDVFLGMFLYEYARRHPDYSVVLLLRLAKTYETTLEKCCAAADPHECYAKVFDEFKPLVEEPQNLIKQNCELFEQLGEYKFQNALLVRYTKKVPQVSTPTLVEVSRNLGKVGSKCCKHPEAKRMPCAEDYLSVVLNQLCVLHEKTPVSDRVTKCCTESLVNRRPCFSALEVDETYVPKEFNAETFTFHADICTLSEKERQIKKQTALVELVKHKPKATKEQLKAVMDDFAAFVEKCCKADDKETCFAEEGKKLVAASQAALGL

Question: How did the Kd [1] turn out when [Zn(NTZ)2Cl2] [NTZ-Zn(II)] was run?
Answer: The Kd was 13.4 µM.

Question: How did the Kd [2] turn out when [Cu(NTZ)2Cl2] [NTZ-Cu(II)] was run?
Answer: The Kd was 5.35 µM.

Question: How did the Kd [3] turn out when [Ni(NTZ)2Cl2] [NTZ-Ni(II)] was run?
Answer: The Kd was 20.9 µM.
